# Assay results from PMC4389225, “Triaminopyrimidine is a fast-killing and long-acting antimalarial clinical candidate” (Nature Communications, 2015).
# Legend:
# [1] = test system: asexual blood stage of Pf; assay: Pf asexual blood stage potency (Pf IC50); assay type: cell-based, Plasmodium falciparum
# Description: The TAPs series emerged from a high-throughput screen (HTS) of 500,000 compounds from the AstraZeneca corporate library against the asexual blood stage of Pf using a high-content image-based approach. The procedure for synthesis of compounds 1-6, 10, 11 using a scheme similar to Fig. 1 is provided in Supplementary Note 1. The initial hit provided multiple diversification points for a robust lead optimization campaign. […] Compounds with 2-pyridyl modification at the 2-amino position of pyrimidine core improved potency and solubility at the cost of potent activity against hERG and acetylcholine esterase (AChE; compounds 3-6; Table 1). […] The observed hERG and AChE selectivity improvement with 7 could be attributed to the polar nature of the pyrazole group and its role in reducing the pKa of the core pyrimidine ring. […] To assess the potential for cross-resistance, representative TAPs were screened against a panel of clinical isolates and in vitro-generated mutant strains displaying varying mechanisms of resistance to antimalarial agents currently in use and under development, respectively, (Supplementary Tables 1–3).
# [2] = test system: Pf3D7^0087/N9; assay: animal or person; assay type: in vivo, Plasmodium falciparum
# Description: All animal studies were ethically reviewed and carried out in accordance with European Directive 86/609/EEC and the GSK Policy on the Care, Welfare and Treatment of Animals. During this experiment, female mice were used from the batch NSGJ 01/1 (The Jackson Laboratory, USA). The therapeutic efficacy of compound 12 against Pf3D7^0087/N9 was studied using a ‘4-day test’ reported earlier. Briefly, NODscidIL2Rγ^null mice engrafted with human erythrocytes were infected with 20 × 10^6 Pf-infected erythrocytes. Infections were performed by i.v. inoculation. All mice were randomly assigned to their corresponding treatment. The treatment started at day 3 and finished at day 6 after infection. The compound was administered orally as a suspension in 0.5% w/v hydroxypropyl methylcellulose (HPMC) with 0.1% v/v Tween 80, using an oral gavage at a maximum dose volume of 20 ml kg^−1. Vehicle alone was administered in untreated mice. In all cases, parasitemia was assessed in samples from peripheral blood obtained at days 3–7 after infection. A qualitative analysis of the effect of treatment on Pf3D7^0087/N9 was assessed by microscopy and flow cytometry. Fresh samples of peripheral blood from Pf-infected mice were stained with TER-119-Phycoerythrine (marker of murine erythrocytes) and SYTO-16 (nucleic acid dye) and then analysed by flow cytometry (FACS Calibur, BD). Microscopy analysis was performed with Giemsa-stained blood smears from samples taken at days 5 and 7 (48 and 96 h after starting treatment, respectively).
# PK-PD model for the metabolite (compound 9) alone. Pharmacokinetic data from the Pf/SCID model was linked to efficacy using the following equation5.
# Where P [log (total no. of parasites / mouse)], Kgro (growth rate constant), Pmax (log (maximum no. of parasites / mouse)), Kkill (maximum kill rate constant), H (Hill slope), EC50 (concentration required for achieving half maximal kill rate) and Ce (concentration of the drug in the effect compartment). Percent parasitemia values were converted into total number of parasites in mouse blood assuming […] (9.23 log10) RBCs per mouse. The lower limit of quantitation for % parasitemia was 0.01% or 5.23 log10. Effect compartment was used for modelling the delay observed in efficacy at a lower dose. […]
# [3] = PK in the blood of infected Pf/SCID mice; assay type: in vivo, mouse; settings: for CL/F: SCID, mouse, whole blood
# Procedure: Peripheral blood samples (25 μl) were taken at different times (0.25, 0.5, 1, 2, 4, 6, 8 and 23 h), mixed with 25 μl of H2O Mili-Q and immediately frozen on dry ice. The frozen samples were stored at −80 °C until analysis. Vehicle-treated mice experienced the same blood-sampling regimen. Blood samples were processed by liquid–liquid extraction by mixing 10 μl diluted blood with 180 μl AcN:MeOH (80:20; v-v) mixture. Quantitative analysis by Liquid chromatography-tandem mass spectrometry (LC-MS/MS) was performed using UPLC (Waters) and Sciex API4000. The lower limit of quantification in this assay was 0.005 μg ml^−1.
# [4] = test system: Pf 7G8; assay: microbe, parasite or virus in culture; assay type: cell-based; settings: Plasmodium falciparum
# Description: (§1) tested in duplicate from two independent experiments using a SYBR-Green based assay2.
# (§2) (1 picture or pasted object on this page, not shown here)
# [5] = test system: Pf DD2; assay: microbe, parasite or virus in culture; assay type: cell-based; settings: Plasmodium falciparum
# Description: as §1, §2
# [6] = test system: Pf K1; assay: microbe, parasite or virus in culture; assay type: cell-based; settings: Plasmodium falciparum
# Description: as §1, §2
# [7] = test system: Pf NF54; assay: microbe, parasite or virus in culture; assay type: cell-based; settings: Plasmodium falciparum
# Description: as §1, §2
# [8] = test system: Pf SB1; assay: microbe, parasite or virus in culture; assay type: cell-based; settings: Plasmodium falciparum
# Description: as §1, §2
# [9] = test system: Pf W2; assay: microbe, parasite or virus in culture; assay type: cell-based; settings: Plasmodium falciparum
# Description: as §1, §2
# [10] = test system: Dd2; assay: [3H]-hypoxanthine incorporation assay, Dd2; assay type: cell-based, Plasmodium falciparum; settings: Plasmodium falciparum, DD2
# Procedure: (§3) 9 and 12 were tested for their antiplasmodial activity against a panel of Pf strains known to harbour mutations conferring resistance to novel agents under clinical development. Parasite growth inhibition is measured using the [3H]-hypoxanthine incorporation assay. IC50s are established for each strain (n ≥2) and compared to the IC50 of Dd2 (standard pan-resistant
# [11] = test system: Dd2 bc-1 ELQ-300; assay: [3H]-hypoxanthine incorporation assay, Dd2 bc-1 ELQ-300 resistant; assay type: cell-based, Plasmodium falciparum; settings: Plasmodium falciparum, DD2
# Procedure: as §3, with “Supplementary Table 3: Compound 9 and 12 retain their activity against Pf strains harbouring mutations to novel antimalarial agents in clinical development. Compound 9” for “9”, “pan-resistant […]” for “pan-resistant”
# [12] = test system: Dd2 PI4K Cpd 1; assay: [3H]-hypoxanthine incorporation assay, Dd2 PI4K Cpd 1 resistant; assay type: cell-based; settings: Plasmodium falciparum
# Procedure: as §3, with “Supplementary Table 3: Compound 9 and 12 retain their activity against Pf strains harbouring mutations to novel antimalarial agents in clinical development. Compound 9” for “9”, “pan-resistant […]” for “pan-resistant”
# [13] = test system: Dd2 DHODH DSM265; assay: [3H]-hypoxanthine incorporation assay, Dd2 DHODH DSM265 resistant; assay type: cell-based; settings: Plasmodium falciparum
# Procedure: as §3, with “Supplementary Table 3: Compound 9 and 12 retain their activity against Pf strains harbouring mutations to novel antimalarial agents in clinical development. Compound 9” for “9”, “pan-resistant […]” for “pan-resistant”
# [14] = test system: Dd2 PfATP4 NITD609; assay: [3H]-hypoxanthine incorporation assay, Dd2 PfATP4 NITD609 resistant; assay type: cell-based; settings: Plasmodium falciparum
# Procedure: as §3, with “Supplementary Table 3: Compound 9 and 12 retain their activity against Pf strains harbouring mutations to novel antimalarial agents in clinical development. Compound 9” for “9”, “pan-resistant […]” for “pan-resistant”
# [15] = test system: PfATP4 Cpd 2; assay: [3H]-hypoxanthine incorporation assay, PfATP4 Cpd 2 resistant; assay type: cell-based; settings: Plasmodium falciparum
# Procedure: as §3, with “Supplementary Table 3: Compound 9 and 12 retain their activity against Pf strains harbouring mutations to novel antimalarial agents in clinical development. Compound 9” for “9”, “pan-resistant […]” for “pan-resistant”
# [16] = test system: PfATP4 Cpd 3; assay: [3H]-hypoxanthine incorporation assay, PfATP4 Cpd 3 resistant; assay type: cell-based; settings: Plasmodium falciparum
# Procedure: as §3, with “Supplementary Table 3: Compound 9 and 12 retain their activity against Pf strains harbouring mutations to novel antimalarial agents in clinical development. Compound 9” for “9”, “pan-resistant […]” for “pan-resistant”
# [17] = test system: Cpd 4 Unpublished Target; assay: [3H]-hypoxanthine incorporation assay, Cpd 4 Unpublished Target resistant; assay type: cell-based; settings: Plasmodium falciparum
# Procedure: as §3, with “Supplementary Table 3: Compound 9 and 12 retain their activity against Pf strains harbouring mutations to novel antimalarial agents in clinical development. Compound 9” for “9”, “pan-resistant […]” for “pan-resistant”
# [18] = 10 mg kg-1, one compartment POPK model
# [19] = 30 mg kg-1, one compartment POPK model
compound,measurement,setting,value
"Cc1nc(Nc2ncc(N3CCNC(C)C3)c(Nc3cc(C)n(C)n3)n2)cc(C2CC2)c1F.Cl.Cl (stereo not shown) [compound 9, N2-(4-cyclopropyl-5-fluoro-6-methylpyridin-2-yl)-N4-(1,5-dimethyl-1H-pyrazol-3-yl)-5-(3-methylpiperazin-1-yl)pyrimidine-2,4-diamine dihydrochloride]",IC50,[1]; Plasmodium falciparum,14 nM
same,improvement in Pf potency,[1]; compound 9 relative to compound 7,> 10 fold
same,Kkill (maximum kill rate constant),[2]; PK-PD model for compound 9 alone,0.2 h⁻¹
same,EC50,"[2]; Plasmodium falciparum, in Mus musculus, read-out: EC50 (blood concentration for half-maximal kill rate)",309 nM
same,Kkillm,"[2]; metabolite, Fixed",0.2 h⁻¹
same,Ka,[3]; [18],0.29 h⁻¹
same,Ka,[3]; [19],0.62 h⁻¹
same,V/F,[3]; [19],53 L/kg
same,CL/F,[3]; [18],122 mL/min/kg
same,CL/F,[3]; [19],117 mL/min/kg
same,V/F,"[3]; compound 9, 10 mg kg-1, one compartment POPK model",70 L/kg
same,CLm,"[3]; metabolite, Fixed",80 L/h/kg
same,Ke0m,"[3]; metabolite, Fixed",0.06 h⁻¹
same,Vcm,"[3]; metabolite, Fixed",29 L/kg
same,IC50,[4],26.5 ± 5 nM
same,IC50,[5],19.6 ± 7 nM
same,IC50,[6],33.8 ± 5 nM
same,IC50,[7],18.5 ± 5 nM
same,IC50,[8],25.6 ± 13 nM
same,IC50,[9],28.1 ± 8 nM
same,IC50,[10],6 nM
same,IC50,[11],10 nM
same,IC50,[12],10 nM
same,IC50,[13],9.1 nM
same,IC50,[14],8.6 nM
same,IC50,[15],11 nM
same,IC50,[16],11 nM
same,IC50,[17],9.4 nM
